Measurements from PMC7315563, “Bioactive fluorenes. Part III: 2,7-dichloro-9H-fluorene-based thiazolidinone and azetidinone analogues as anticancer and antimicrobial against multidrug resistant strains agents” (BMC Chemistry, 2020).
Converted amounts (≈) assume the structure as drawn.

Key:
[1] = system: A549 human lung cancer cells; experiment: cell viability assay (MTT); assay type: cell-based; settings: 24 h; for viability at 1 µg/mL: read-out: Validity (%) for sample concentrations (µg/mL) 1; for viability at 10 µg/mL: read-out: Validity (%) for sample concentrations (µg/mL) 10; for viability at 31.25 µg/mL: read-out: Validity (%) for sample concentrations (µg/mL) 31.25; for viability at 62.5 µg/mL: 62.50 µg/mL, read-out: Validity (%) for sample concentrations (µg/mL) 62.50; for viability at 125 µg/mL: read-out: Validity (%) for sample concentrations (µg/mL) 125; for viability at 250 µg/mL: read-out: Validity (%) for sample concentrations (µg/mL) 250; for viability at 500 µg/mL: read-out: Validity (%) for sample concentrations (µg/mL) 500; for viability at 1000 µg/mL: read-out: Validity (%) for sample concentrations (µg/mL) 1000
[2] = system: WI-38 human normal fibroblast cells; experiment: cell viability assay (MTT); assay type: cell-based; settings: 24 h; for viability at 31.25 µg/mL: read-out: Validity (%) for sample concentrations (µg/mL) 31.25; for viability at 62.5 µg/mL: 62.50 µg/mL, read-out: Validity (%) for sample concentrations (µg/mL) 62.50; for viability at 125 µg/mL: read-out: Validity (%) for sample concentrations (µg/mL) 125; for viability at 250 µg/mL: read-out: Validity (%) for sample concentrations (µg/mL) 250; for viability at 500 µg/mL: read-out: Validity (%) for sample concentrations (µg/mL) 500
Summary of the method: (§1)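 Cells were seeded at 5000/well in RPMI-1640 with 10% FBS. The next day they were exposed to fluorene derivatives at 0–500 µg/mL for 24 h. Viability was measured by MTT absorbance at 570 nm.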

[3] = system: MDA-MB-231 human breast cancer cells; experiment: cell viability assay (MTT); assay type: cell-based; settings: 24 h; for viability at 1 µg/mL: read-out: Validity (%) for sample concentrations (µg/mL) 1; for viability at 10 µg/mL: read-out: Validity (%) for sample concentrations (µg/mL) 10; for viability at 31.25 µg/mL: read-out: Validity (%) for sample concentrations (µg/mL) 31.25; for viability at 62.5 µg/mL: read-out: Validity (%) for sample concentrations (µg/mL) 62.5; for viability at 125 µg/mL: read-out: Validity (%) for sample concentrations (µg/mL) 125; for viability at 250 µg/mL: read-out: Validity (%) for sample concentrations (µg/mL) 250; for viability at 500 µg/mL: read-out: Validity (%) for sample concentrations (µg/mL) 500
Summary of the method: as §1

MRSA = experiment: MIC by broth microdilution method (resazurin end point); assay type: cell-based; settings: Staphylococcus aureus, 24 h at 37 °C, read-out: MIC
Method: (§2) Determination of Minimum inhibitory concentrations (MIC) of flourene derivatives was done using broth microdilution method. The procedure involved preparation of twofold dilutions of the fluorene derivatives ranging from (500–7.8 μg/mL) in sterile Mueller–Hinton broth inside the wells of 96-well microplate (Sarstedt, Germany). The inoculums of test strains prepared from fresh overnight cultures were adjusted to 0.5 McFarland standards, which equals to 1–2 × 10^8 CFU/mL for bacteria, the procedure was done according to CLSI 2012 [42]. […] For this assay the positive control agents were vancomycin (range: 0.7–50 μg/mL), gentamicin (range: 0.15–10 μg/mL) and the negative control was 1% DMSO.
(§3) For proper determination of the MIC end point resazurin dye has been used. A stock solution of resazurin sodium salt powder (Titan Biotech) was prepared at 0.02% (wt/vol) in distilled water, sterilized by filtration through a […] filter into a sterile light protected container then stored protected from light at 4 °C for up to 1 week, or at − […] for long term use, then 10–15% resazurin solution of the total volume in wells was added to each well and incubation for 1–4 h at 37 °C was done. A change in color from blue to pink indicates the growth of bacteria, and MIC was defined as the lowest concentration of the drug that prevented this change in color.

E. coli = experiment: as above; assay type: cell-based; settings: Escherichia coli, 24 h at 37 °C
Method: as §2, §3

S. aureus = experiment: as above; assay type: cell-based; settings: Staphylococcus aureus; S. aureus; 24 h at 37 °C; read-out: MIC
Method: as §2, §3

[4] = system: Pseudomonas aeruginosa (P. aeruginosa), multidrug resistant clinical isolate; experiment: agar well diffusion assay; assay type: cell-based; settings: 24 h, 500 µg/mL of tested compound
Summary of the method: (§4)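 Multidrug-resistant clinical isolates swabbed on Mueller–Hinton agar at about 1–5 × 10^5 CFU/mL; 0.5 cm wells received 50 μL compound at 500 μg/mL in 1% DMSO. Incubation 24 h, 37 °C for bacteria and C. albicans, 25 °C for Aspergillus; inhibition zone diameter measured in mm.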

[5] = system: methicillin-resistant Staphylococcus aureus (MRSA); experiment: agar well diffusion assay; assay type: cell-based; settings: Staphylococcus aureus, 500 µg/mL of tested compound, 24 h
Summary of the method: as §4

[6] = system: Staphylococcus aureus (S. aureus), multidrug resistant clinical isolate; experiment: agar well diffusion assay; assay type: cell-based; settings: Staphylococcus aureus; S. aureus; 500 µg/mL of tested compound; 24 h
Summary of the method: as §4

[7] = system: Klebsiella pneumoniae (K. pneumoniae), multidrug resistant clinical isolate; experiment: agar well diffusion assay; assay type: cell-based; settings: 24 h, 500 µg/mL of tested compound
Summary of the method: as §4

[8] = system: Escherichia coli (E. coli), multidrug resistant clinical isolate; experiment: agar well diffusion assay; assay type: cell-based; settings: 24 h, 500 µg/mL of tested compound
Summary of the method: as §4

P. aeruginosa = experiment: MIC by broth microdilution method (resazurin end point); assay type: cell-based; settings: Pseudomonas aeruginosa, 24 h at 37 °C
Method: as §2, §3

[9] = system: Acinetobacter baumannii (A. baumannii), multidrug resistant clinical isolate; experiment: agar well diffusion assay; assay type: cell-based; settings: 500 µg/mL of tested compound, 24 h
Summary of the method: as §4

COc1cc(C2C(Cl)C(=O)N2c2nc(-c3cc(Cl)cc4c3-c3ccc(Cl)cc3C4)cs2)ccc1O (centres unmarked) [6h, 3-chloro-1-(4-(2,7-dichloro-9H-fluoren-4-yl)thiazol-2-yl)-4-(4-hydroxy-3-methoxyphenyl)azetidin-2-one]
melting point: 95 to 97 °C | viability at 1 µg/mL [1]: 89.5% | viability at 10 µg/mL [1]: 80.9% | viability at 31.25 µg/mL [1]: 79% | viability at 62.5 µg/mL [1]: 75.8% | viability at 125 µg/mL [1]: 63.5% | viability at 250 µg/mL [1]: 37.9% | viability at 500 µg/mL [1]: 33% | viability at 1000 µg/mL [1]: 30.3% | IC50 [1]: 192 µg/mL (≈ 353 µM) | viability at 31.25 µg/mL [2]: 85% | viability at 62.5 µg/mL [2]: 70.6% | viability at 125 µg/mL [2]: 60.4% | viability at 250 µg/mL [2]: 51.8% | viability at 500 µg/mL [2]: 49.4% | IC50 [2]: 487 µg/mL (≈ 895 µM) | viability at 1 µg/mL [3]: 94.3% | viability at 10 µg/mL [3]: 90.4% | viability at 31.25 µg/mL [3]: 85.8% | viability at 62.5 µg/mL [3]: 77.8% | viability at 125 µg/mL [3]: 73.6% | viability at 250 µg/mL [3]: 68.5% | viability at 500 µg/mL [3]: 65.8% | IC50 [3]: > 500 µg/mL | MIC (MRSA): 31.2 µg/mL (≈ 57.5 µM) | MIC (E. coli): 31.2 µg/mL (≈ 57.5 µM) | MIC (S. aureus): 62.5 µg/mL (≈ 115 µM) | zone of inhibition at 500 µg/mL [4]: 8 mm | zone of inhibition at 500 µg/mL [5]: 15 mm | zone of inhibition at 500 µg/mL [6]: 12 mm | zone of inhibition at 500 µg/mL [7]: 3 mm | zone of inhibition at 500 µg/mL [8]: 22 mm

O=C1C(Cl)C(c2ccc[nH]2)N1c1nc(-c2cc(Cl)cc3c2-c2ccc(Cl)cc2C3)cs1 (centres unmarked) [6l, 3-Chloro-1-(4-(2,7-dichloro-9H-fluoren-4-yl)thiazol-2-yl)-4-(1H-pyrrol-2-yl)azetidin-2-one]
melting point: 105 to 107 °C | viability at 1 µg/mL [1]: 85% | viability at 10 µg/mL [1]: 72.2% | viability at 31.25 µg/mL [1]: 58.1% | viability at 62.5 µg/mL [1]: 53.6% | viability at 125 µg/mL [1]: 43.1% | viability at 250 µg/mL [1]: 34% | viability at 500 µg/mL [1]: 30.3% | viability at 1000 µg/mL [1]: 27.9% | IC50 [1]: 95 µg/mL (≈ 195 µM) | viability at 31.25 µg/mL [2]: 94% | viability at 62.5 µg/mL [2]: 76.4% | viability at 125 µg/mL [2]: 70.2% | viability at 250 µg/mL [2]: 52.5% | viability at 500 µg/mL [2]: 39% | IC50 [2]: 350 µg/mL (≈ 719 µM) | viability at 1 µg/mL [3]: 96.9% | viability at 10 µg/mL [3]: 90.4% | viability at 31.25 µg/mL [3]: 85.5% | viability at 62.5 µg/mL [3]: 71.9% | viability at 125 µg/mL [3]: 69.8% | viability at 250 µg/mL [3]: 66.7% | viability at 500 µg/mL [3]: 60.9% | IC50 [3]: > 500 µg/mL | MIC (MRSA): 31.2 µg/mL (≈ 64.2 µM) | MIC (E. coli): 31.2 µg/mL (≈ 64.2 µM) | MIC (P. aeruginosa): 125 µg/mL (≈ 257 µM) | MIC (S. aureus): 31.2 µg/mL (≈ 64.2 µM) | zone of inhibition at 500 µg/mL [4]: 8 mm | zone of inhibition at 500 µg/mL [5]: 15 mm | zone of inhibition at 500 µg/mL [6]: 15 mm | zone of inhibition at 500 µg/mL [8]: 22 mm

O=C1C(Cl)C(c2ccnc3ccccc23)N1c1nc(-c2cc(Cl)cc3c2-c2ccc(Cl)cc2C3)cs1 (centres unmarked) [6n, 3-chloro-1-(4-(2,7-dichloro-9H-fluoren-4-yl)thiazol-2-yl)-4-(quinolin-4-yl)azetidin-2-one]
melting point: 175 to 177 °C | viability at 1 µg/mL [1]: 93.3% | viability at 10 µg/mL [1]: 83.6% | viability at 31.25 µg/mL [1]: 67.9% | viability at 62.5 µg/mL [1]: 64.2% | viability at 125 µg/mL [1]: 52.7% | viability at 250 µg/mL [1]: 43.2% | viability at 500 µg/mL [1]: 39.1% | viability at 1000 µg/mL [1]: 36.3% | IC50 [1]: 159 µg/mL (≈ 290 µM) | viability at 31.25 µg/mL [2]: 98.6% | viability at 62.5 µg/mL [2]: 85.9% | viability at 125 µg/mL [2]: 53.2% | viability at 250 µg/mL [2]: 43.3% | viability at 500 µg/mL [2]: 39.8% | IC50 [2]: 212 µg/mL (≈ 386 µM) | viability at 1 µg/mL [3]: 96.2% | viability at 10 µg/mL [3]: 89.5% | viability at 31.25 µg/mL [3]: 86.8% | viability at 62.5 µg/mL [3]: 81.3% | viability at 125 µg/mL [3]: 73.2% | viability at 250 µg/mL [3]: 67.1% | viability at 500 µg/mL [3]: 59.2% | IC50 [3]: > 500 µg/mL | MIC (E. coli): 31.2 µg/mL (≈ 56.9 µM) | MIC (P. aeruginosa): 62.5 µg/mL (≈ 114 µM) | zone of inhibition at 500 µg/mL [4]: 13 mm | zone of inhibition at 500 µg/mL [9]: 5 mm | zone of inhibition at 500 µg/mL [6]: 9 mm | zone of inhibition at 500 µg/mL [7]: 5 mm | zone of inhibition at 500 µg/mL [8]: 19 mm
